{"source": "ChEMBL document CHEMBL5352494", "about": "“Hybrid molecules combining GABA-A and serotonin 5-HT6 receptors activity designed to tackle neuroinflammation associated with depression” (Eur J Med Chem, 2023)", "key": {"in vitro [1]": {"assay": "in vitro", "conditions": "rat, liver microsomes"}, "in vitro [2]": {"assay": "in vitro", "conditions": "human, Caco-2"}}, "data": [{"smiles": "CC(C)NCC(O)COc1cccc2ccccc12", "note": "(configuration not stated) [PROPRANOLOL]", "values": [{"measurement": "half-life at 0.1 µM", "setting": "in vitro [1]", "value": "> 1", "unit": "h"}]}, {"smiles": "CNC(=C[N+](=O)[O-])NCCSCc1ccc(CN(C)C)o1", "note": "[RANITIDINE]", "values": [{"measurement": "Papp A→B at 10 µM", "setting": "in vitro [2]", "value": 0.3, "unit": "×10⁻⁶ cm/s"}]}]}
